Reference: PMC6695731, “Application of a Substrate-Mediated Selection with c-Src Tyrosine Kinase to a DNA-Encoded Chemical Library” (Molecules, 2019)
Several values for one entry are separate records, joined by “and”; a condition that tells them apart may be missing. Identical values can stand only once. Entries after “also recorded” stand apart in the source; their conditions may differ.

How the values were obtained:
c-Src [1] = conditions: LYNtide kinetic parameters for Src; cited from earlier work
c-Src [2] = biological target: T1, c-Src (Homo sapiens, UniProt P12931); experiment: ADP-Glo assay of compounds as c-Src substrates (ADP production); format: biochemical
Procedure: Hit molecules were initially characterized as substrates for c-Src using the luciferase-based ADP-Glo assay (Promega). All six molecules appeared to be efficient substrates for Src kinase.
Kinase reaction was performed as follows 1x kinase buffer (25 mM Tris-HCl (pH 7.5), 2 mM dithiothreitol (DTT), 0.1 mM Na3VO4, 10 mM MgCl2), 1 mM ATP, different concentrations (1 μM to 100 μM) of substrates (either off DNA or on DNA hit molecules), and 12 nM rSrc by incubation for 2 h at 30 °C. After that, distinct 55mers were annealed to each kinase reaction, as previously described. The annealed reactions were incubated with anti Pho-Tyr loaded protein G magnetic bead at RT for 30 min. After washing by three times 20 μL 1xPBST with 1 mg/mL BSA, 1 mg/mL tRNAs), the captured samples were eluted by 20 μL of 1 mM phenylphosphate. The resulting supernatant was then used as a template in qPCR.
After the kinase reaction was performed as previous section, the reaction mixture (5 μL) was incubated with 5 µL of ADP-Glo™ reagent at RT for 40 min and then add 10 µL of kinase detection reagent at RT for 1 h. The luminescence was measure by plate reader.

c-Src [3] = biological target: T1, c-Src; experiment: NADH-based coupled enzyme assay detecting ADP generation; format: biochemical; conditions: 1 mM ATP, 100 µM compound, 12 nM Src, 30 °C, 3 h
Procedure: (§1) To confirm this, compounds were tested with an NADH-based, coupled enzyme assay that also detects ADP generation. […] This additionally supported that the ADP-Glo activity observed was due to activation of ATP hydrolysis and not phosphotransfer to these compounds.
Kinase reaction was performed as follows 1x kinase buffer (25 mM Tris-HCl (pH 7.5), 2 mM dithiothreitol (DTT), 0.1 mM Na3VO4, 10 mM MgCl2), 1 mM ATP, 100 μM peptides and 12 nM Src at 30 °C for 3 h. The kinase reaction mixture was incubated with 30 unit/mL lactic dehydrogenase (LDH), 20 unit/mL pyruvate kinase (PK), 2 mM phosphoenolpyruvate (PEP), and 1 mM NADH. The absorbance of NADH was monitored at 340 nm.
Figure S8. NADH Coupled Assay of Hit Molecules with c-Src. Samples were composed of 1 mM ATP,
100 µM putative substrate molecules, and 12 nM c-Src kinase at 30 C for 3 hours. Full method description
is provided in Methods and Materials 4.6 NADH assay.

c-Src [4] = biological target: T1, c-Src; experiment: HPLC and LC/MS analysis of phosphorylation of the compound by c-Src; format: biochemical
Procedure: as §1
(a) on-DNA binding affinity to c-Src measured by fluorescence polarization in the presence of ATP (100 µM). […] Peak identity was verified by LC/MS analysis (Figure S9). […]
Kina se R e a c t ion w it h 1µM Src
Figure S7. HPLC Analysis of LYNtide Phosphorylation. The kinase reaction was performed by incubating 200 µM LYNtide with Src in 1x kinase buffer (as outlined in section 4.6 NADH coupled assay, […]
with 1mM ATP) for 30 min. […] Peak […]
identities were verified by LC/MS. The peak at 19 minutes is an impurity in the LYNtide alkyne preparation, which was also phosphorylated. […]
[M+H ]+ cal cd. […] O OH […]
Figure S9. LC/MS analysis of SrcDEL10 Phosphorylation. […]
µM ATP and 0.3 µM c-Src at 30 C for 16 hours. […]
and 10 µM c-Src at 30 C for 16 hours. […]

c-Src [5] = biological target: T1, c-Src; experiment: substrate-mediated selection of DNA conjugates (c-Src treatment, anti-phosphotyrosine pulldown), enrichment by qPCR; format: biochemical; conditions: purified DNA conjugates, with kinase treatment
Procedure: To mimic library selection conditions, a DNA-LYNtide construct was mixed with a control construct at a ratio of 1 to 500. This mixture was treated at 50 nM total DNA concentration with Src kinase and the selection was applied. We observed robust enrichment (2600-fold) and recovery (9%) of the LYNtide construct by qPCR (Figure S3).
We then questioned if SrcDEL10 was indeed selected from the library based on the ability to serve as a Src substrate and accept a phosphate.
For optimization of substrate-based selection, two unique 180-mer constructs were prepared by PCR, as previously described. Each contained two unique 20-mer sequences for specific amplification and detection in qPCR. One was prepared with an unmodified forward primer as a control. The other was prepared using a LYNtide 20-mer oligo conjugate as a primer.
Kinase reaction was performed as follows 1x kinase buffer (25 mM Tris-HCl (pH 7.5), 2 mM dithiothreitol (DTT), 0.1 mM Na3VO4, 10 mM MgCl2), 1 mM ATP, different concentrations (1 μM to 100 μM) of substrates (either off DNA or on DNA hit molecules), and 12 nM rSrc by incubation for 2 h at 30 °C. After that, distinct 55mers were annealed to each kinase reaction, as previously described. […]
Figure S3. […] In a model enrichment assay, enrichment for tyrosine kinase substrates was detected by qPCR of model 180-mer constructs. […]

c-Src [6] = biological target: T1, c-Src; experiment: radiolabel (32P-ATP) inhibition assay of LYNtide phosphorylation by c-Src; format: biochemical; conditions: 32P-ATP 50 µM, biotinylated-LYNtide 50 µM
Procedure: The original six off-DNA hits were tested for inhibition of c-Src activity. For these tests, we used ^32P-ATP as a substrate and detected phosphorylation levels of a biotinylated-LYNtide substrate after adsorption to streptavidin coated membranes. This assay should not be affected by activation of ATP hydrolysis or phosphotransfer to the small molecules. […] There was no apparent correlation of these values to the Km or kcat values in the prior assays as substrates.
Each hit molecule was preincubated with 1.2 nM c-Src at 30 °C for 30 min. The kinase reaction was initiated with the addition of 50 μM LYNtide and 50 μM ATP with 0.15 μCi gamma ^32P ATP at 30 °C for 10 min. The kinase reaction samples (2 µL) were spotted on P81 filter paper consisting of 1.5 cm squares. After air dry, the P81 papers were washed 4 times with 0.5% phosphoric acid for 5 min each. The P81 papers were washed one time with acetone for 5 min. The papers were then allowed to air dry for about 20 min. The dried P81 papers were analyzed by liquid scintillation counter.
Figure 6 Inhibition of hit molecules in a radiolabel assay with ^32P-ATP (50 µM) and biotinylated-LYNtide (50 µM) as substrates.

Src = Src (Homo sapiens, UniProt P12931); experiment: HPLC-assessed inhibition of LYNtide phosphorylation; format: biochemical
Procedure: Kina se R e a c t ion w it h 1 0 nM Sr c
KR with LynT ide N-Alkyne (50uM)
Kina se R e a c t ion w it h 1 0 nM Sr c + Sr c D E L 1 0
300 ~ 25% phosphorylation
KR with LynT ide N-Alkyne (50uM) + Cmpd 10 (100uM)
Figure S11. […] The kinase reaction
30 min, if applicable) in 1x kinase buffer (as outlined in 4.6 NADH coupled assay, with 1mM ATP) for 30

c-Src [7] = biological target: T1, c-Src; experiment: on-DNA binding affinity to c-Src by fluorescence polarization in the presence of ATP; conditions: ligand linked to 20-mer oligo hybridized to FAM oligo; ATP 100 µM; read-out: binding constant (Kd)
Procedure: These studies used the HPLC-purified ligand linked to 20-mer oligos, which were prepared for the prior qPCR validations under crude conditions. This construct was hybridized to a fluorescein-containing complementary oligo, and binding constants were determined by changes observed in fluorescence polarization, as previously described.
(a) on-DNA binding affinity to c-Src measured by fluorescence polarization in the presence of ATP (100 µM). […] Peak identity was verified by LC/MS analysis (Figure S9).

[8] = tested on: STAT3 phosphorylation in NME cells; experiment: cell signaling immunoblot, EGF-stimulated STAT3 phosphorylation (Src-dependent); format: cell-based, murine; conditions: 100 µM prior to EGF (50 ng/mL, 30 min)
Text: Epidermal growth factor (EGF) stimulation of NME cells leads to STAT3 phosphorylation via a Src-dependent process. […] The broad specificity Src family inhibitor, PP2, was used as a positive control. Importantly, phosphorylation of ERK1/2, which occurs via a Src independent pathway, was not reduced. Similarly, autophosphorylation of EGFR at Y1068 was not affected.
NME cells were constructed via stable overexpression of EGFR in normal murine mammary gland (NMuMG) cells as previously described. These cells were cultured in DMEM containing 10% FBS, 10 μg/mL insulin, penicillin, and streptomycin. For cell signaling assays, cells were plated for 24 h prior to removal of the FBS for an additional 24 h. During this serum starvation, PP2 (Sigma, 529576) or SrcDEL10-ester were added as indicated, and cells were subsequently stimulated with EGF (50 ng/mL) (Goldbio, 1150-04) for 30 min. […] Differential binding of these antibodies was detected using their appropriate secondary antibodies.
NME cells were serum deprived for 24 h in the presence of vehicle control (DMSO), Src family inhibitor PP2 (10 µM), or SrcDEL10-ester (100 µM) for the indicated amounts of time. […] Equal protein aliquots were analyzed by immunoblot with the indicated antibodies. […]

[9] = Table S3, ADP-Glo assay of SrcDEL10 derivatives, enzyme Src

| kcat (c-Src [2]; ADP-Glo assay) [s⁻¹] | Km (c-Src [2]; ADP-Glo assay, compound as substrate of c-Src) | Km (c-Src [2]; [9]) [µM] | Vmax (c-Src [2]; [9]) [µM/min] | kcat (c-Src [2]; [9]) [s⁻¹] | ADP generation relative to compound (c-Src [3]) | enrichment in qPCR selection assay (c-Src [5]) | IC50 (c-Src [6]) [µM] | inhibition at 100 µM (Src) [%] | LYNtide phosphorylation in presence of compound (Src; 100 µM SrcDEL10, 50 µM LYNtide, 10 nM Src, 50% without compound) | Kd (c-Src [7]) [µM] | SrcDEL10-phos. fraction by LC/MS (c-Src [4]; SrcDEL10 100 µM, 100 µM ATP, 10 µM c-Src, 30 C, 16 hours (Figure S9b)) [%] | phosphorylated compound formed (c-Src [4]; enzyme 1 µM, SrcDEL10 200 µM, ATP 1 mM, HPLC, LC/MS) | Molecule | Km (c-Src [1]) [µM] | kcat (c-Src [1]) [s⁻¹] | extent of phosphorylation (c-Src [4]; 1 µM c-Src, 200 µM LYNtide, 1 mM ATP, 30 min) | STAT3 phosphorylation levels after EGF stimulation [8] |
| --- | --- | --- | --- | --- | --- | --- | --- | --- | --- | --- | --- | --- | --- | --- | --- | --- | --- |
| 6.5 | 5 µM and 5.2 µM | 5.23 | 1.17 | 6.47 | approximately one equivalent | 10,000 fold | – | – | – | – | – | – | DEDIYGVLP [LYNtide, optimal peptide substrate for Lyn tyrosine kinase, a Src family kinase, reference compound] | 18 | 2.0 | full phosphorylation; also recorded: fully phosphorylated | – |
| – | – | – | – | – | – | – | 48 | ~50 | ~ 25% | 7.5 | 54 | ~ 1% | NC(=O)CN(CCc1ccc(O)cc1)C(=O)[C@H](CC(=O)O)NC(=O)c1ccc(CN(CC2CC2)C(=O)CCO)cc1 [SrcDEL10] | – | – | – | No reduction |
